# Legend:
# [1] = tested on: transgenic soybean plants (T0 cuttings) expressing heterologous HPPD; assay: Greenhouse testing of transgenic soybean plants (T0 cuttings); format: in vivo, Glycine max; parameters: key: % injury: 0% = no injury, 100% = complete death; conditions: two weeks after treatment
# Method: Transgenic plants expressing heterologous HPPD or HST enzymes are tested for tolerance against coumarone-derivative herbicides in greenhouse experiments.
# For post emergence treatment, the test plants are first grown to a height of 3 to 15 cm, depending on the plant habit, and only then treated with the herbicides. For this purpose, the test plants are either sown directly and grown in the same containers, or they are first grown separately and transplanted into the test containers a few days prior to treatment.
# For testing of T0 plants, cuttings can be used. In the case of soybean plants, an optimal shoot for cutting is about 7.5 to 10 cm tall, with at least two nodes present. Each cutting is taken from the original transformant (mother plant) and dipped into rooting hormone powder (indole-3-butyric acid, IBA). The cutting is then placed in oasis wedges inside a bio-dome. Wild type cuttings are also taken simultaneously to serve as controls. The cuttings are kept in the biodome for 5-7 days and then transplanted to pots and then acclimated in the growth chamber for two more days. Subsequently, the cuttings are transferred to the greenhouse, acclimated for approximately 4 days, and then subjected to spray tests as indicated.
# Depending on the species, the plants are kept at 10-25° C. or 20-35° C. The test period extends over 3 weeks. During this time, the plants are tended and their response to the individual treatments is evaluated. Herbicide injury evaluations are taken at 2 and 3 weeks after treatment. Plant injury is rated on a scale of 0 to 9, 0 being no injury and 9 being complete death. Tolerance to coumarone-derivative herbicides can also be assessed in Arabidopsis. In this case transgenic Arabidopsis thaliana plants are assayed for improved tolerance to coumarone-derivative herbicides in 48-well plates. Seeds are surface sterilized by stirring for 5 min in ethanol+water (70+30 by volume), rinsing one time with ethanol+water (70+30 by volume) and two times with a sterile, deionized water. The seeds are resuspended in 0.1% agar dissolved in water (w/v). Four to five seeds per well are plated on solid nutrient medium consisting of half-strength Murashige Skoog nutrient solution, pH 5.8 (Murashige and Skoog (1962) Physiologia Plantarum 15: 473-497). Compounds are dissolved in dimethylsulfoxid (DMSO) and added to the medium prior solidification (final DMSO concentration 0.1%). Multi well plates are incubated in a growth chamber at 22° C., 75% relative humidity and 110 μmol Phot * m-2 * s-1 with 14: 10 h light: dark photoperiod. Seven to ten days after seeding growth inhibition is evaluated by comparison to wild type plants. Tolerance factor is calculated by dividing the plant growth IC50 value of transgenic plants containing a HPPD and/or HST sequence by that of wildtype plants. Additionally, T1 and T2 transgenic Arabidopsis plants can be tested for improved tolerance to coumarone-derivative herbicides in a greenhouse studies. Herbicide injury scoring is done 2-3 weeks after treatment and is rated on a scale of 0 to 100%, 0% being no injury and 100% being complete death.
# Synechococcus HPPD = assay: HPPD activity assay, Synechococcus HPPD; format: biochemical; conditions: normalized on Hordeum HPPD
# Method: HPPD produces homogentisic acid and CO2 from 4-hydroxyphenylpyruvate (4-HPP) and O2. The activity assay for HPPD is based on the analysis of homogentisic acid by reversed phase HPLC.
# The assay mixture can contain 150 mM potassium phosphate buffer pH 7.0, 50 mM L-ascorbic acid, 1 μM FeSO4 and 7 μg of purified enzyme in a total volume of 1 ml. Inhibitors are dissolved in DMSO (dimethylsulfoxide) to a concentration of 20 mM or 0.5 mM, respectively. From this stock solution serial five-fold dilutions are prepared in DMSO, which are used in the assay. The respective inhibitor solution accounts for 1% of the assay volume. […]
# Activities are normalized by setting the uninhibited enzyme activity to 100%. […] values are calculated using non-linear regression. […]
# Inhibitors are dissolved in DMSO (dimethylsulfoxide) to a concentration of 0.5 mM. […] IC50 values are calculated using non-linear regression.
# Using methods which are described in the above examples or well known in the art, purified, recombinant wildtype HPPD enzymes are characterized with respect to their kinetic properties and sensitivity towards HPPD inhibiting herbicides. Apparent michaelis constants (Km) and maximal reaction velocities (Vmax) are calculated by non-linear regression with the software GraphPad Prism 5 (GraphPad Software, La Jolla, USA) using a substrate inhibition model. […]
smiles,measurement,setting,value
"CC1=NOC(c2c(Cl)ccc(C3=C(O)c4ncccc4N(CC(F)F)S3(=O)=O)c2Cl)C1 (stereo not shown) [Inhibitor 1, 3-[2,4-dichloro-3-(3-methyl-4,5-dihydroisoxazol-5-yl)phenyl]-1-(2,2-difluoroethyl)-2,2-dioxo-pyrido[3,2-c]thiazin-4-ol]",Injury evaluation,"[1]; event AV4283 (probably Synechococcus HPPD**, marked: tested at a half rate), dose line 62 g/ha",20
same,Injury evaluation,"[1]; event AV4283 (probably Synechococcus HPPD**, marked: tested at a half rate), dose line 125 g/ha",20
same,Injury evaluation,"[1]; event AV4283 (probably Synechococcus HPPD**, marked: tested at a half rate), dose line 250 g/ha",20
same,Injury evaluation,"[1]; event AV4287 (marked: tested at a half rate), dose line 62 g/ha",0
same,Injury evaluation,"[1]; event AV4287 (marked: tested at a half rate), dose line 125 g/ha",0
same,Injury evaluation,"[1]; event AV4287 (marked: tested at a half rate), dose line 250 g/ha",0
same,Injury evaluation,"[1]; event AV4553 (Hordeum HPPD), dose 62 g/ha",0
same,Injury evaluation,"[1]; event AV4553 (Hordeum HPPD), dose 125 g/ha",10
same,Injury evaluation,"[1]; event AV4553 (Hordeum HPPD), dose 250 g/ha",10
same,Injury evaluation,"[1]; event HT1833 (Arabidopsis HPPD_M335H, plastidic), dose 62 g/ha",0
same,Injury evaluation,"[1]; event HT1833 (Arabidopsis HPPD_M335H, plastidic), dose 125 g/ha",5
same,Injury evaluation,"[1]; event HT1833 (Arabidopsis HPPD_M335H, plastidic), dose 250 g/ha",5
same,Injury evaluation,"[1]; event LG5831** (Arabidopsis HPPD_M335H, plastidic), marked: tested at a half rate, dose line 62 g/ha",0
same,Injury evaluation,"[1]; event LG5831** (Arabidopsis HPPD_M335H, plastidic), marked: tested at a half rate, dose line 125 g/ha",0
same,Injury evaluation,"[1]; event LG5831** (Arabidopsis HPPD_M335H, plastidic), marked: tested at a half rate, dose line 250 g/ha",0
same,Injury evaluation,"[1]; event LG6156 (Synechocystis HPPD), dose 62 g/ha",0
same,Injury evaluation,"[1]; event LG6156 (Synechocystis HPPD), dose 125 g/ha",10
same,Injury evaluation,"[1]; event LG6156 (Synechocystis HPPD), dose 250 g/ha",10
same,Injury evaluation,"[1]; event LJ383, dose 62 g/ha",10
same,Injury evaluation,"[1]; event LJ383, dose 125 g/ha",10
same,Injury evaluation,"[1]; event LJ383, dose 250 g/ha",20
same,Injury evaluation,"[1]; event LJ387 (Hordeum HPPD), dose 62 g/ha",0
same,Injury evaluation,"[1]; event LJ387 (Hordeum HPPD), dose 125 g/ha",0
same,Injury evaluation,"[1]; event LJ387 (Hordeum HPPD), dose 250 g/ha",0
same,Injury evaluation,"[1]; event LJ409, dose 62 g/ha",10
same,Injury evaluation,"[1]; event LJ409, dose 125 g/ha",10
same,Injury evaluation,"[1]; event LJ409, dose 250 g/ha",15
same,Normalized tolerance index (TI),Synechococcus HPPD,2.2
